Assay results published in EP0250134B1, “Method for combating swine dysentery” (IMCERA Group Inc., priority 1986, dated 1987).
Converted amounts (≈) assume the structure as drawn. Structures can show the parent of a compound that is named as a salt. Where two headings read alike, the source gives them in different places.

Tested on: Treponema hyodysenteriae
Test: in vitro Streak Plate Test Method (inhibition endpoint / MIC on trypticase soy blood agar)
Type: cell-based
Conditions: for MIC: Brachyspira hyodysenteriae, 48 h; for MIC / Inhibition Endpoints: first number = growth occurred, second = no growth, 48 hrs at 39°C anaerobic
Description: The following test procedure was used to evaluate the anti-Treponema hyodysenteriae activity of the compounds in the present invention. This test procedure establishes the lowest concentration of the compounds that will inhibit the growth on cultures of Treponema hyodysenteriae in an in vitro Streak Plate Test Method.
Procedure: Stock solutions containing 10,000, 1,000, 100, 10, 1.0, and 0.1, micrograms per milliliters of the compound to be tested were prepared. The final dilutions to establish the test concentrations in the media were made by placing the correct volume of stock solution in a petri dish, adding the media (trypticase soy blood agar), and mixing before the media solidified. After the media solidified, the test cultures of Treponema hyodysenteriae were streaked onto the surface of the agar. Petri dishes containing media without test samples were also set up as culture controls and are inoculated in the same manner. All inoculated plates were incubated at 39°C in anaerobic jars for 48 hrs. Inhibition endpoints were then determined by observing the test plates for growth or no growth of the test cultures at the various concentrations of the compounds. If the culture growth occured at one concentration but not at the next higher concentration, the inhibitory endpoint or MIC (Minimum Inhibitory Concentration) was considered the higher concentration.
Referring to Table 1, the culture numbers refer to field isolate strains of Treponema hyodysenteriae. These field isolates were isolated in Illinois, Iowa, and Nebraska. The numbers giving the results in the Table are read as follows: the first number for each isolate and compound tested corresponds to the concentration in micrograms per milliliter where growth occurred and the second number corresponds to the concentration in micrograms per milliliter where no growth occurred.

[1] = Culture No. 8064 (field isolate)
[2] = Culture No. 8072 (field isolate)
[3] = Culture No. 8076 (field isolate)
[4] = Culture No. 8080 (field isolate)
[5] = Culture No. 8087 (field isolate)
[6] = Culture No. 8098 (field isolate)
[7] = Culture No. 8125 (field isolate)
[8] = Culture No. B-100 (field isolate)
[9] = Culture No. B-140 (field isolate)

CCC(C(=O)C(C)C(O)C(C)CCc1ccc(C)c(O)c1C(=O)O)C1OC(CC)(C2CCC(O)(CC)C(C)O2)CC1C (centres unmarked) [Lasalocid Na, reference compound]
MIC (Culture No. 8064 (field isolate), read-out: Inhibition Endpoints): 1 to 5 µg/mL (≈ 1.69 to 8.46 µM) | MIC (Culture No. 8072 (field isolate), read-out: Inhibition Endpoints): 1 to 5 µg/mL (≈ 1.69 to 8.46 µM) | MIC (Culture No. 8076 (field isolate), read-out: Inhibition Endpoints): 1 to 5 µg/mL (≈ 1.69 to 8.46 µM) | MIC (Culture No. 8080 (field isolate), read-out: Inhibition Endpoints): 0.5 to 1 µg/mL (≈ 0.846 to 1.69 µM) | MIC (Culture No. 8087 (field isolate), read-out: Inhibition Endpoints): 1 to 5 µg/mL (≈ 1.69 to 8.46 µM) | MIC (Culture No. 8098 (field isolate), read-out: Inhibition Endpoints): 1 to 5 µg/mL (≈ 1.69 to 8.46 µM) | MIC (Culture No. 8125 (field isolate), read-out: Inhibition Endpoints): 1 to 5 µg/mL (≈ 1.69 to 8.46 µM) | MIC (Culture No. B-100 (field isolate), read-out: Inhibition Endpoints): 0.5 to 1 µg/mL (≈ 0.846 to 1.69 µM) | MIC (Culture No. B-140 (field isolate), read-out: Inhibition Endpoints): 1 to 5 µg/mL (≈ 1.69 to 8.46 µM)

CCC[C@@H]1C[C@@H](C(=O)N[C@@H]([C@H]2O[C@H](SC)[C@H](O)[C@@H](O)[C@H]2O)[C@@H](C)O)N(C)C1 [Lincomycin HCL, reference compound]
MIC (read-out: Inhibition Endpoints, Culture No. 8064 (field isolate)): 10 to 50 µg/mL | MIC (read-out: Inhibition Endpoints, Culture No. 8072 (field isolate)): 10 to 50 µg/mL | MIC (read-out: Inhibition Endpoints, Culture No. 8076 (field isolate)): 10 to 50 µg/mL | MIC (read-out: Inhibition Endpoints, Culture No. 8080 (field isolate)): 10 to 50 µg/mL | MIC (read-out: Inhibition Endpoints, Culture No. 8087 (field isolate)): 10 to 50 µg/mL | MIC (read-out: Inhibition Endpoints, Culture No. 8098 (field isolate)): 10 to 50 µg/mL | MIC (read-out: Inhibition Endpoints, Culture No. 8125 (field isolate)): 10 to 50 µg/mL | MIC (read-out: Inhibition Endpoints, Culture No. B-100 (field isolate)): 1 to 5 µg/mL | MIC (read-out: Inhibition Endpoints, Culture No. B-140 (field isolate)): 0.05 to 0.1 µg/mL

Carriomycin Na [reference compound]
Inhibition Endpoints [1]: .01-.05 µgs/ml | Inhibition Endpoints [2]: <.01 µgs/ml | Inhibition Endpoints [3]: <.01 µgs/ml | Inhibition Endpoints [4]: .01-.05 µgs/ml | Inhibition Endpoints [5]: .01-.05 µgs/ml | Inhibition Endpoints [6]: <.01 µgs/ml | Inhibition Endpoints [7]: <.01 µgs/ml | activity compared to the controls (summary of Table 1): comparable activity

Co Lysocellin
Inhibition Endpoints [1]: .05-.1 µgs/ml | Inhibition Endpoints [2]: <.01 µgs/ml | Inhibition Endpoints [3]: .05-.1 µgs/ml | Inhibition Endpoints [4]: .05-.1 µgs/ml | Inhibition Endpoints [5]: .05-.1 µgs/ml | Inhibition Endpoints [6]: .05-.1 µgs/ml | Inhibition Endpoints [7]: <.01 µgs/ml | Inhibition Endpoints [8]: <.01 µgs/ml | Inhibition Endpoints [9]: <.01 µgs/ml

Cu Lysocellin
Inhibition Endpoints [1]: .1-.5 µgs/ml | Inhibition Endpoints [2]: .05-.1 µgs/ml | Inhibition Endpoints [3]: .05-.1 µgs/ml | Inhibition Endpoints [4]: .1-.5 µgs/ml | Inhibition Endpoints [5]: .1-.5 µgs/ml | Inhibition Endpoints [6]: .05-.1 µgs/ml | Inhibition Endpoints [7]: .1-.5 µgs/ml | Inhibition Endpoints [8]: .1-.5 µgs/ml | Inhibition Endpoints [9]: .1-.5 µgs/ml

Lysocellin Free Acid
Inhibition Endpoints [1]: .1-.5 µgs/ml | Inhibition Endpoints [2]: .01-.05 µgs/ml | Inhibition Endpoints [3]: <.01 µgs/ml | Inhibition Endpoints [4]: .1-.5 µgs/ml | Inhibition Endpoints [5]: .05-.1 µgs/ml | Inhibition Endpoints [6]: .05-.1 µgs/ml | Inhibition Endpoints [7]: .01-.05 µgs/ml | Inhibition Endpoints [8]: .01-.05 µgs/ml | Inhibition Endpoints [9]: .01-.1 µgs/ml

Lysocellin Na
Inhibition Endpoints [1]: .1-.5 µgs/ml | Inhibition Endpoints [2]: .1-.5 µgs/ml | Inhibition Endpoints [3]: .1-.5 µgs/ml | Inhibition Endpoints [4]: .1-.5 µgs/ml | Inhibition Endpoints [5]: .1-.5 µgs/ml | Inhibition Endpoints [6]: .1-.5 µgs/ml | Inhibition Endpoints [7]: .1-.5 µgs/ml | Inhibition Endpoints [8]: .1-.5 µgs/ml | Inhibition Endpoints [9]: .1-.5 µgs/ml

Mn Lysocellin
Inhibition Endpoints [1]: .1-.5 µgs/ml | Inhibition Endpoints [2]: .1-.5 µgs/ml | Inhibition Endpoints [3]: .1-.5 µgs/ml | Inhibition Endpoints [4]: .1-.5 µgs/ml | Inhibition Endpoints [5]: .1-.5 µgs/ml | Inhibition Endpoints [6]: .1-.5 µgs/ml | Inhibition Endpoints [7]: .1-.5 µgs/ml | Inhibition Endpoints [8]: .1-.5 µgs/ml | Inhibition Endpoints [9]: .1-.5 µgs/ml
